Series [1] concerns postherpetic neuralgia. The experiment in a line: Case report: gallium maltolate cream to treat postherpetic neuralgia (person). Format: in vivo, human. The following applies: tried over about three years before gallium treatment. The protocol: A person had been experiencing postherpetic neuralgia with erythema on the left side of their face for approximately three years. The pain was so severe that it interfered with sleep and other daily activities. During that period they had tried numerous systemic analgesics to relieve the pain, including amitriptyline 25 mg BID, methadone 5 mg BID, carbamazepine 100 mg BID, gabapentin 200 mg QD, oxycodone 20 mg BID, naproxen, acetaminophen, and intravenous hydrogen peroxide. […] They then began treatment using the topical gallium maltolate formulation of Example 1, above. This formulation was applied three times per day to the affected area, at about 8 AM, 1 PM, and 9 PM, every day for four weeks. The formulation was administered by dipping a fingertip lightly into the formulation, and then smearing the formulation from the fingertip onto the affected area.

Series [2] concerns peripheral neuropathic pain. To be noted: cited from earlier work.
In another series the test system is vaginal inflammation. The experiment in a line: Case report: gallium maltolate cream to treat pain and itching associated with vaginal inflammation (person). Format: in vivo, human. To be noted: for effect of earlier topical treatment on vaginal inflammation symptoms: same patient before gallium treatment.
Series [3] relates to painful diabetic neuropathy. To be noted: Wiffen et al. 2005; cited from earlier work.
For series [4], the system named is postherpetic neuralgia. To be noted: cited from earlier work.
The test system of series [5] is non-malignant neuropathic pain. The following applies: cited from earlier work.
Setting [6] is: meta-analysis, Eisenberg et al. 2005.

Like-named read-outs stand apart in the source and are kept apart here.

As for `CC(=O)Nc1ccc(O)cc1` [acetaminophen], the “pain relief from earlier treatments tried by the same patient” value (“pain relief … by the same patient” for short) in the series with postherpetic neuralgia [1] is “None of these treatments produced significant pain relief”.

Consider `CN(C)CCC=C1c2ccccc2CCc2ccccc21` [amitriptyline], for which, in series [2] (Saarto and Wiffen 2005), the “NNT (number needed to treat) for moderate pain relief” value is listed as 2. Besides, in series [2] (explanation of NNT 2), the “share of those treated with at least moderate pain relief” value was 50%. Also, the “pain relief … by the same patient” value in the series on postherpetic neuralgia [1] was “None of these treatments produced significant pain relief”.

Turning to `CCOC(=O)c1ccc(N)cc1` [benzocaine], the “effect of earlier topical treatment on vaginal inflammation symptoms” value in the series on vaginal inflammation is recorded as “little effect”.

`NC(=O)N1c2ccccc2C=Cc2ccccc21` [carbamazepine]: in series [3], the “NNT for moderate pain relief” value is 2.3. The “pain relief … by the same patient” value in the series with postherpetic neuralgia [1] is listed as “None of these treatments produced significant pain relief”.

Take `NCC1(CC(=O)O)CCCCC1` [gabapentin]: the “NNT for moderate pain relief” value in the series on postherpetic neuralgia [4] (postherpetic neuralgia, Wiffen et al. 2005) is reported as 3.2; in series [3], 3.8. Further, in the series on postherpetic neuralgia [1], the “pain relief … by the same patient” value is on record as “None of these treatments produced significant pain relief”.

Regarding `OO` [hydrogen peroxide], the “pain relief … by the same patient” value in the series on postherpetic neuralgia [1] is reported as “None of these treatments produced significant pain relief”.

Regarding `CN1CC[C@]23CCCC[C@H]2[C@H]1Cc1ccc(O)cc13` [levorphanol], in series [5] (setting [6]), the “efficacy in intermediate-term (8-56 day) studies” value (“efficacy in intermediate-term” for short) is “marginal efficacy” and the “efficacy in short-term (24 hour) studies” value is listed as “marginal to no efficacy”. For the same compound, in the series with postherpetic neuralgia [4] (Rowbotham et al. 2003), the “subjects who dropped out of the study due to drug side effects” value is 31%. Moreover, the “average reduction in pain” value with postherpetic neuralgia [4] (high dose, Rowbotham et al. 2003) is on record as 33%. Also, in the series on postherpetic neuralgia [4] (low dose, Rowbotham et al. 2003), the “average reduction in pain” value was 14%.

As to `CCC(=O)C(CC(C)N(C)C)(c1ccccc1)c1ccccc1` (stereo not shown) [methadone], in series [5] (setting [6]), the “efficacy in intermediate-term” value was “marginal efficacy” and the “efficacy in short-term (24 hour) studies” value is “marginal to no efficacy”. For the same compound, in the series with postherpetic neuralgia [1], the “pain relief … by the same patient” value is recorded as “None of these treatments produced significant pain relief”.

With `Clc1ccc(COC(Cn2ccnc2)c2ccc(Cl)cc2Cl)c(Cl)c1` (stereo not shown) [miconazole], in the series on vaginal inflammation (same patient), the “local tolerability of earlier topical treatment” value is listed as “irritating”. Besides, the “effect of earlier topical treatment on vaginal inflammation symptoms” value in the series on vaginal inflammation is reported as “ineffective”.

Take `CN1CC[C@]23c4c5ccc(O)c4O[C@H]2[C@@H](O)C=C[C@H]3[C@H]1C5` [morphine]: in series [5] (in vivo), the “efficacy in intermediate-term” value is on record as “marginal efficacy” and the “efficacy in short-term (24 hour) studies” value was “marginal to no efficacy”.

On to `COc1ccc2cc([C@H](C)C(=O)O)ccc2c1` [naproxen], for which the “pain relief … by the same patient” value with postherpetic neuralgia [1] was “None of these treatments produced significant pain relief”.

With `COc1ccc2c3c1O[C@H]1C(=O)CC[C@@]4(O)[C@@H](C2)N(C)CC[C@]314` [oxycodone], in series [5] (setting [6]), the “efficacy in intermediate-term” value is “marginal efficacy” and the “efficacy in short-term (24 hour) studies” value was “marginal to no efficacy”. The “pain relief … by the same patient” value with postherpetic neuralgia [1] is listed as “None of these treatments produced significant pain relief”.

On to `O=C1NC(=O)C(c2ccccc2)(c2ccccc2)N1` [phenytoin], for which the “NNT for moderate pain relief” value in series [3] is listed as 2.1.

Source of the values: patent US9114067B2, “Local administration of gallium compositions to treat pain” (priority 2006, dated 2015).
